The values that follow are results of earlier work, collected in patent US6017399A, “Method for controlling and removing solid deposits from a surface of a component of a steam generating system” (priority 1998, dated 2000).

By pKa is commonly meant the negative logarithm of the acid dissociation constant.

Where two headings read alike, the source gives them in different places.

On to `NCCCCCN` [1,5 Diaminopentane], for which the pKa (25° C., Table 4) is recorded as 10.915.
For `C1CCC2=NCCCN2CC1` [1,5-Diazabicyclo (5,4,0) Unde-5-ane], the pKa (25° C., Table 4) is 13.40.
On to `NCCCCCCN` [1,6 Diaminohexane], for which, where the note is “25° C., Table 4”, the pKa is on record as 10.93.
For the compound `NCCCCCCCCN` [1,8 Diaminooctane], the pKa (25° C., Table 4) is on record as 10.937.
On to `CCCCNCCCC` [Di-N-Butylamine], for which the pKa (25° C., Table 4) is listed as 11.31.
Regarding `CC(C)CNCC(C)C` [Diisobutylamine], the pKa (25° C., Table 4) is 10.82.
Regarding `CNC` [Dimethylamine], the pKa entry is, setting by setting: (25° C.) “about 10.61”; (25° C., Table 4) 10.61; (about 250° C.) “about 6.50”.
`CCCCN` [Mono-N-Butylamine]: where the note is “25° C., Table 4”, the pKa is on record as 10.61.
On to `CN` [Monomethylamine], for which the pKa (25° C., Table 4) is 10.62.
On to `CCNC1CCCCC1` [N-Ethylcyclohexylamine], for which, under “25° C., Table 4”, the pKa is on record as 12.00.
With `CCCN(CCC)CCC` [Tri-N-Propylamine], the pKa (25° C., Table 4) is recorded as 10.65.
For the compound `CN(C)C` [Trimethylamine], the pKa (25° C., Table 4) was 10.71.
Dimethylamino-propylamine: where the note is “25° C., Table 4”, the pKa was 11.70.
